Reference: ChEMBL document CHEMBL5608200, “Design, synthesis, and evaluation of antitumor activity of 2-arylmethoxy-4-(2-fluoromethyl-biphenyl-3-ylmethoxy) benzylamine derivatives as PD-1/PD-l1 inhibitors” (Eur J Med Chem, 2024)
The source made the active and inactive calls. The rule behind the calls is not given here.

What was measured:
MC-38 [1] = test: Antitumor activity against mouse MC38 cells expressing hPD-L1 implanted in PD-1/PD-L1 humanized C57BL/6 mouse assessed as upregulation of granzyme B expression at 50 mg/kg, IG QD administered for 15 days by immunohistochemistry analysis; type: functional, organism-based; conditions: time 15.0 day
HCC827 = test: Induction of T-cell mediated apoptosis in human HCC827 cells cocultured with PMA-stimulated Jurkat T cells assessed as mortality rate at 16 uM incubated for 48 hrs by CCK-8 assay; type: functional
[2] = Cytotoxicity against human PBMCs at 1 to 4 uM by CCK-8 assay; type: toxicity, cell-based; conditions: pbmc, dose 1-4 µM
MDA-MB-231 [3] = test: Induction of T-cell mediated apoptosis in human MDA-MB-231 cells cocultured with PMA-stimulated Jurkat T cells assessed as mortality rate at 32 uM incubated for 48 hrs by CCK-8 assay; type: functional
[4] = Tmax in Sprague-Dawley rat at 10 mg/kg, iv measured upto 48 hrs by LC-MS/MS analysis; type: ADME, organism-based; conditions: in vivo
MC-38 [5] = test: Antiproliferative activity against mouse MC38 cells expressing hPD-L1 incubated for 48 hrs by CCK8 assay; conditions: MC-38, 48 h
MC-38 [6] = test: Antitumor activity against mouse MC38 cells expressing hPD-L1 implanted in PD-1/PD-L1 humanized C57BL/6 mouse assessed as increase in proportion of CD3+/CD8+ T cells at 50 mg/kg, IG QD administered for 15 days by flow cytometry analysis; type: functional, organism-based; conditions: time 15.0 day
MDA-MB-231 [7] = test: Cytotoxicity against human MDA-MB-231 cells at 1 to 32 uM incubated for 48 hrs by CCK-8 assay; type: functional, cell-based; conditions: dose 1-32 µM
[8] = Clearance in Sprague-Dawley rat at 10 mg/kg, iv measured upto 48 hrs by LC-MS/MS analysis; type: ADME, organism-based; conditions: in vivo
MC-38 [9] = test: Antitumor activity against mouse MC38 cells expressing hPD-L1 implanted in PD-1/PD-L1 humanized C57BL/6 mouse assessed as tumor growth inhibition at 50 mg/kg, IG; type: functional; conditions: MC-38, po, read-out: TGI
MC-38 [10] = test: Antitumor activity against mouse MC38 cells expressing hPD-L1 implanted in PD-1/PD-L1 humanized C57BL/6 mouse assessed as upregulation of CXCR3 mRNA expression at 50 mg/kg, IG QD administered for 15 days by RT-PCR analysis; type: functional, organism-based; conditions: time 15.0 day
MC-38 [11] = test: Antitumor activity against mouse MC38 cells expressing hPD-L1 implanted in PD-1/PD-L1 humanized C57BL/6 mouse assessed as upregulation of perforin expression at 50 mg/kg, IG QD administered for 15 days by immunohistochemistry analysis; type: functional, organism-based; conditions: time 15.0 day
[12] = Apparent volume of distribution in Sprague-Dawley rat at 50 mg/kg, IG measured upto 48 hrs by LC-MS/MS analysis; type: ADME, organism-based; conditions: in vivo, po
[13] = Toxicity in PD-1/PD-L1 humanized C57BL/6 mouse implanted with mouse MC38 cells expressing hPD-L1 assessed as weight loss at 50 mg/kg, IG QD administered for 15 days; type: organism-based, MC-38; conditions: in vivo, po, 360 h, time 15 day
A549 = test: Induction of T-cell mediated apoptosis in human A549 cells cocultured with PMA-stimulated Jurkat T cells assessed as mortality rate at 1 to 32 uM incubated for 48 hrs by CCK-8 assay; type: functional, cell-based; conditions: dose 1-32 µM

SMILES: N#Cc1cncc(COc2cc(OCc3cccc(-c4ccc5c(c4)OCCO5)c3C(F)F)ccc2CNCCO)c1
- Activity (MC-38 [1]): Active
- Activity (HCC827): 59.6%
- Activity [2]: Non-Toxic
- Activity (MDA-MB-231 [3]): 64%
- Tmax [4]: 7.8 min
- IC50 (MC-38 [5]): > 8 µM
- Activity (MC-38 [6]): Active
- Activity (MDA-MB-231 [7]): inactive
- CL [8]: 12 mL/min/kg
- inhibition in vivo at 50 mg/kg (MC-38 [9]): 62.4%
- Activity (MC-38 [10]): Active
- Activity (MC-38 [11]): Active
- Vz [12]: 31.76 L/kg
- Activity [13]: Non-Toxic
- Activity (A549): inactive
